For assay [1], the system named is HIV-1 (HTLVIIIB or HTLVIIIMN strains) in H9 cells. Description: HIV p24 antigen capture assay, acute infection of H9 cells. Type of assay: cell-based. Conditions: Human immunodeficiency virus 1, H9, Expt. 1. An excerpt: After infection, unabsorbed virions are removed by washing.
The subject of assay [2] is HIV-1 reverse transcriptase (RT) activity in chronically infected CEM cells. Particulars: chronically infected human T lymphocytes such as CEM; general statement without data; cited from earlier work.
Assay [3] deals with HIV-1 (HTLVIIIB) in H9 cells. Description: Long term infection assay, p24 expression in H9 cells (antigen capture). Type of assay: cell-based. Conditions: for inhibition at 0.05 µM: read-out: % inhibition of p24 compared with control.

Read-outs that look alike come from different tables or passages of the source.

Regarding `Cc1cn([C@H]2C[C@H](N=[N+]=[N-])[C@@H](CO)O2)c(=O)[nH]c1=O` [AZT, 3'-azido-3'-deoxythymidine], in assay [1] (AZT 0.0016 μg/ml (0.005 μM)), the inhibition at 0.005 µM stood at 6%. Besides, in assay [1] (AZT 0.008 μg/ml (0.02 μM)), the inhibition at 0.02 µM is 44%. Moreover, in assay [1] (AZT 0.04 μg/ml (0.1 μM)), the inhibition at 0.1 µM amounted to 73%. The molecule further came in with an inhibition at 0.6 µM in assay [1] (AZT 0.2 μg/ml (0.6 μM)) of 90%. The “inhibition of HIV replication in chronically infected cells (in words)” value in assay [2] is “do not inhibit HIV replication”.

With `Nc1ccn([C@H]2CC[C@@H](CO)O2)c(=O)n1` [ddC, dideoxycytosine], the inhibition at 0.05 µM in assay [3] (Human immunodeficiency virus 1, H9, 72 h, day 3, 25mer 0.60 μM, ddC 0.05 μM) is 75%; in assay [3] (Human immunodeficiency virus 1, H9, 168 h, day 7, 25mer 0.60 μM, ddC 0.05 μM), 94%; in assay [3] (Human immunodeficiency virus 1, H9, 240 h, day 10, 25mer 0.60 μM, ddC 0.05 μM) it was 91%; in assay [3] (Human immunodeficiency virus 1, H9, 336 h, day 14, 25mer 0.60 μM, ddC 0.05 μM), 56%; in assay [3] (Human immunodeficiency virus 1, H9, 408 h, day 17, 25mer 0.60 μM, ddC 0.05 μM), 44%. In assay [3] (day 3, 25mer 0.60 μM, ddC 0.05 μM, control 489), the “p24 expression” value came out at 124 pg/mL. Also, the “p24 expression (pg/ml)” value in assay [3] (day 7, 25mer 0.60 μM, ddC 0.05 μM, control 188,800) is on record as 10,800 pg/ml; in assay [3] (day 10, 25mer 0.60 μM, ddC 0.05 μM, control 210,400) it was 17,300 pg/ml; in assay [3] (day 14, 25mer 0.60 μM, ddC 0.05 μM, control 130,400) it was 60,000 pg/ml; in assay [3] (day 17, 25mer 0.60 μM, ddC 0.05 μM, control 95,600), 54,000 pg/ml. Moreover, the “long term inhibition of p24 expression (in words)” value in assay [3] (long term culture, up to day 17) is “ineffectiveness of ddC”. The “inhibition of HIV replication in chronically infected cells (in words)” value in assay [2] is “do not inhibit HIV replication”.

As a reminder, the inhibition is the percentage by which the read-out fell short of the control.

The values above are taken from US5684147A, “Therapeutic anti-HIV anti-viral oligonucleotides and pharmaceutical formulations thereof” (Hybridon, Inc., priority 1994, dated 1997).
